Key:
IL-1β = assay: Inhibition of IL-1β secretion from LPS stimulated peripheral blood mononuclear cells (ELISA); format: cell-based; settings: LPS (1 μg/ml) stimulated human PBMC, 18 hours; read-out: The median inhibition concentration (IC50, nM) of IL-1β
Procedure: (§1) To study the effect of the compound of the present invention, in vitro, the inhibition of the IL-1β and TNF-α secretion was measured using the following procedure:
(§2) Cytokine production was measured in the media from lipopolysaccharide (LPS) stimulated peripheral blood mononuclear cells. The mononuclear cells were isolated from human peripheral blood by Lymphoprep® (Nycomed, Norway) fractionation and suspended in RPMI 1640 (growth medium) with foetal calv serum (FCS, 2%), at a concentration of 5×10^5 cells/ml. The cells were incubated in 24-well tissue culture plates in 1 ml aliquots. Test compounds were dissolved in dimethylsulfoxide (DMSO, 10 mM) and were diluted with the medium. Compounds were added to the cells for 30 minutes, then LPS (1 μg/ml final concentration) was added. The plates were incubated for 18 hours, and the concentration of IL-1β and TNF-α in the medium was determined by enzyme-linked immunosorbent assays. The median inhibitory concentrations (IC50) of the compounds were calculated.

TNF-α = assay: Inhibition of TNF-α secretion from LPS stimulated peripheral blood mononuclear cells (ELISA); format: cell-based; settings: LPS (1 μg/ml) stimulated human PBMC, 18 hours; read-out: The median inhibition concentration (IC50, nM) of TNF-α
Procedure: as §1, §2

PMN-superoxide = assay: Inhibition of PMN (polymorphonuclear) superoxide secretion; format: cell-based; settings: human PMN granulocytes, TNF-α primed, fMLP 10^-7 M; read-out: The median inhibition concentration (IC50, nM) of PMN-superoxide
Procedure: The compounds of the present invention also show similar activities in the ability to inhibit PMN (polymorphonuclear) superoxide secretion which is also indicative of potentially useful anti-inflammatory drugs. The compounds were tested using the following procedure:
Human polymorphonuclear (PMN) granulocytes were isolated from human blood by dextran sedimentation, Lymphoprep® fractionation and hypotonic lysis of contaminating erythrocytes.
Superoxide anion generation was measured as the superoxide dismutase inhibitable reduction of ferricytochrome C (Madhu, S. B. et al, Inflammation, 16, 241, (1992)).
The cells were suspended in Hanks' balanced salt solution, and incubated for 10 minutes at 37° C. with test compounds. The cells were primed by the addition of TNF-α (3 ng/ml final concentration) for 10 minutes, and then ferricytochrome C, (final concentration 750 μg/ml), bovine serum albumin (BSA, final concentration 1 mg/ml) and formyl-methionyl-leucyl-phenylalanine (fMLP, final concentration 10^-7 M) were added for 3 minutes.
The cells were chilled on ice, and were spun down. The optical densities in the cell-free supernatant was measured in a spectrophotometer.
The median inhibitory concentration (IC50) of the compounds was calculated.

[1] = test system: TPA induced murine skin inflammation; assay: TPA induced murine chronic skin inflammation model, ear thickness (ET); format: in vivo, mice; settings: topical, twice daily on day 8, 9 and 10 and once on day 11
Procedure: (§3) To study the compounds of the present invention in vivo the 12--O--tetradecanoylphorbol-13-acetate (TPA) induced murine chronic skin inflammation model were used (De Young, L. M. et al, Agents Actions, 26, 335-341 (1989); Carlson, R. P. et al, Agents Actions, 17, 197-204 (1985); Alford, J. G. et al, Agents Action, 37, (1992); Stanley, P. L. et al, Skin Pharmacol, 4, 262-271 (1991)). The compounds were tested using the following procedure:
(§4) In groups of 6 female mice weighing 18-25 grams, ear skin inflammation was induced by multiple topical applications of TPA on alternate days during a 10 day period. The resulting inflammation was treated topically with compounds in acetone (20 μl/ear) twice daily on day 8, 9 and 10 and once on day 11. The increased ear thickness (ET, right ear thickness minus left ear thickness) was determined approximately 6 hours after the treatment, the mice were sacrificed and the myeloperoxidase (MPO)-activitywas determined in ear biopsies.

myeloperoxidase (MPO) = assay: TPA induced murine chronic skin inflammation model, myeloperoxidase (MPO) activity in ear biopsies; format: in vivo, mice; settings: topical, twice daily on day 8, 9 and 10 and once on day 11
Procedure: as §3, §4

[2] = Spleen and thymus weight in the TPA induced murine skin inflammation model; format: in vivo, mice; settings: 0.1 mg/ear, topical
Procedure: as §3, §4

Row | Compound | IC50 (IL-1β) | IC50 (TNF-α) | IC50 (PMN-superoxide) | % inhibition of ET ([1]; 0.03 mg/ear) | % inhibition of ET ([1]; 0.1 mg/ear) | % inhibition of MPO (myeloperoxidase (MPO); 0.03 mg/ear) | % inhibition of MPO (myeloperoxidase (MPO); 0.1 mg/ear) | Reduction of spleen and thymus weight [2]
1 | C[C@]12CCC(=O)C=C1CC[C@@H]1[C@@H]2[C@@H](O)C[C@@]2(C)[C@H]1CC[C@]2(O)C(=O)CO [Hydrocortisone, reference compound] |  |  |  | 36% | 58% | 51% | 69% | Reduction of spleen and thymus weight
2 | Cc1ccc(S(=O)(=O)Nc2ccccc2Nc2ccc(C(=O)c3ccccc3)cc2)cc1 [Example 27, N-(2-(4-Benzoylphenylamino)phenyl)-4-toluenesulfonamide] |  |  |  |  | 44% |  | 48% | 
3 | Nc1ccc(Nc2ccc(C(=O)c3ccccc3)cc2)cc1 [Example 2, 4-(4-Aminophenylamino)benzophenone] |  |  |  |  | 40% |  | 76% | 
4 | CCOC(=O)Nc1ccccc1Nc1ccc(C(=O)c2ccccc2C)c(Cl)c1 [Example 73, Ethyl N-(2-(4-(2-methylbenzoyl)-3-chlorophenylamino)phenyl)carbamate] | 32 nM | 5 nM | 5 nM |  |  |  |  | 

More lines, main results first:

Row | IC50 (IL-1β) | IC50 (TNF-α) | IC50 (PMN-superoxide) | Compound | % inhibition of ET ([1]; 0.03 mg/ear) | % inhibition of ET ([1]; 0.1 mg/ear) | % inhibition of MPO (myeloperoxidase (MPO); 0.03 mg/ear) | % inhibition of MPO (myeloperoxidase (MPO); 0.1 mg/ear) | Reduction of spleen and thymus weight [2]
5 | 160 nM | 200 nM | 40 nM | Nc1ccccc1Nc1ccc(C(=O)c2ccccc2Cl)cc1 [Example 13, 4-(2-Aminophenylamino)-2'-chlorobenzophenone] |  |  |  |  | 
6 | 13 nM | 7.1 nM | 5 nM | Cc1ccccc1C(=O)c1ccc(Nc2ccccc2N)cc1Cl [Example 56, 4-(2-Aminophenylamino)-2-chloro-2'-methylbenzophenone] |  |  |  |  | 
7 | 250 nM | 790 nM | 160 nM | Nc1ccccc1Nc1ccc(C(=O)c2ccccc2)cc1 [Example 1, 4-(2-Aminophenylamino)benzophenone] |  | 50% |  | 65% | 
8 | 100 nM | 130 nM | > 10000 nM | CCOC(=O)Nc1ccccc1Nc1ccc(C(=O)c2ccccc2)cc1 [Example 32, Ethyl N-(2-(4-benzoylphenylamino)phenyl)carbamate] |  |  |  |  | 
